{"source": "patent US20150208661A1", "about": "“METHOD FOR PREPARING BROMINE BASED BIOCIDAL AQUEOUS COMPOSITIONS” (BROMINE COMPOUNDS LTD., priority 2012, published 2015)", "key": {"[1]": {"system": "Pseudomonas aeruginosa (ATCC 15442)", "experiment": "Biocidal activity against simulated biofilm system (alginate beads with entrapped bacteria)", "assay_type": "cell-based", "conditions": "pH 8", "excerpt": "A biofilm simulation system, alginate beads, developed by the Biofilm Bozeman Institute Montana (Grobe, K. J, Zahller, J and Stewart P. S., 2002 in “Role of dose concentration in biocide efficacy against Pseudomonas aeruginosa Biofilms”, J. Industrial Microbiology & Biotechnology, vol. 29, pp 10-15), was used in order to evaluate the efficacy of the biocide solution against biofilm.\nThe biofilm simulation was created by entrapping bacteria in alginate gel beads. A plate of R2A agar was streaked with Pseudomonas aeruginosa (ATCC 15442) and incubated at 35° C. overnight. Buffer phosphate at pH 7.2 was used to scrap off the bacteria from the agar plate and to create a suspension. The bacterial suspension was mixed with an equal volume of an aqueous 4% sodium alginate solution, to make a final 2% alginate solution. The alginate and bacterial slurry were placed in a 50 ml syringe attached to a gauge needle, connected to a compressed air tank, allowing the syringe to be pressurized. At 20 psig pressure a stream of small drops was forced out and dropped into a stirred solution of 50 mM CaCl2. The Ca^+2 cross linked the alginate, and semi solid beads with entrapped bacterial cells were formed. The beads were allowed to stir in the CaCl2 solution for about 20 minutes, and then rinsed in a dilute 5 mM CaCl2 solution. Several flasks containing 100 beads each were incubated overnight at 35° C. on a rotating shaker in a buffer solution (at pH 8) with 5 mM addition of CaCl2 to maintain the beads structure. The resulting beads diameter was about 2 mm.\nAt the beginning of the experiment, the supernatant of the beads buffer suspension containing 5 mM CaCl2 was decanted and replaced by the 100 ml biocide solution with the required concentration (at pH 8). After different interval contact times, 10 beads were removed and placed in a 5 g/l sodium thiosulfate solution containing 50 mM sodium citrate. The sodium citrate was used to dissolve the alginate gel and release the bacteria into the solution. The neutralizer-citrate solution was placed in the refrigerator for 2 hours, than diluted and placed on R2A agar plates using pour plate technique. The plates were incubated at 35° C. for 24-48 hours and counted. The efficacy and toxicity of the neutralizer were checked as well as a control experiment without biocide addition. Four concentrations of active chlorine (0.5, 1, 2.5 and 5 ppm) were tested at four different contact times (5, 15, 30, and 60 min). Table 1-2 describe the surviving colony forming units (CFU) of the bacteria after different biocides treatment at different contact times."}, "[2]": {"system": "Inoculum of bacteria (activated sludge taken from domestic waste water treatment plant in Haifa)", "experiment": "Biocidal efficacy under different TOC loading", "assay_type": "cell-based", "conditions": "30 min, pH 7", "procedure": "Inoculum of bacteria (activated sludge taken from domestic waste water treatment plant in Haifa), R2A agar for general counting, and Tryptone were employed. The biocidal efficacy of the antifouling composition at different organic loads of 0, 10, 30 and 50 ppm TOC, was examined under different biocidal concentrations (5 and 10 ppm) at pH 7.\n1) 1 ml of inoculum with the appropriate biocide concentration (5, 10 ppm) was added to tryptone solutions, 100 ml each, with different concentrations of TOC (0, 10, 30 and 50 ppm). […] The result stands for the bacteria count at zero time. 3) After 30 min. of shaking (100 rpm), 1 ml of each sample was transferred to a tube filled with 9 ml of the neutralization solution […].\nAn aliquot of 1 ml was taken from this solution and added to another tube containing 9 ml of buffer solution. The solution was mixed under vortex. This operation was repeated for 4 more times.\n4) 1 ml from the two lowest dilutions was inoculated on a R2A agar (by the pour plate method). 5) After the plates were incubated at 25° C. for 5-7 days, the bacteria count was recorded."}}}
{"compound": "OCl", "note": "[NaOCl, sodium hypochlorite]", "values": [{"measurement": "survival of bacteria (CFU)", "setting": "[1]; biocide 0.5 ppm as Cl2, contact time 0 min", "result": "1.20E+07", "unit": "CFU"}, {"measurement": "survival of bacteria (CFU)", "setting": "[1]; biocide 0.5 ppm as Cl2, contact time 5 min", "result": "6.73E+06", "unit": "CFU"}, {"measurement": "survival of bacteria (CFU)", "setting": "[1]; biocide 0.5 ppm as Cl2, contact time 15 min", "result": "6.48E+06", "unit": "CFU"}, {"measurement": "survival of bacteria (CFU)", "setting": "[1]; biocide 0.5 ppm as Cl2, contact time 30 min", "result": "6.53E+06", "unit": "CFU"}, {"measurement": "survival of bacteria (CFU)", "setting": "[1]; biocide 0.5 ppm as Cl2, contact time 60 min", "result": "4.08E+06", "unit": "CFU"}, {"measurement": "survival of bacteria (CFU)", "setting": "[1]; biocide 1 ppm as Cl2, contact time 0 min", "result": "1.20E+07", "unit": "CFU"}, {"measurement": "survival of bacteria (CFU)", "setting": "[1]; biocide 1 ppm as Cl2, contact time 5 min", "result": "7.25E+06", "unit": "CFU"}, {"measurement": "survival of bacteria (CFU)", "setting": "[1]; biocide 1 ppm as Cl2, contact time 15 min", "result": "4.18E+06", "unit": "CFU"}, {"measurement": "survival of bacteria (CFU)", "setting": "[1]; biocide 1 ppm as Cl2, contact time 30 min", "result": "4.28E+06", "unit": "CFU"}, {"measurement": "survival of bacteria (CFU)", "setting": "[1]; biocide 1 ppm as Cl2, contact time 60 min", "result": "1.81E+06", "unit": "CFU"}, {"measurement": "survival of bacteria (CFU)", "setting": "[1]; biocide 2.5 ppm as Cl2, contact time 0 min", "result": "1.20E+07", "unit": "CFU"}, {"measurement": "survival of bacteria (CFU)", "setting": "[1]; biocide 2.5 ppm as Cl2, contact time 5 min", "result": "6.40E+06", "unit": "CFU"}, {"measurement": "survival of bacteria (CFU)", "setting": "[1]; biocide 2.5 ppm as Cl2, contact time 15 min", "result": "3.10E+06", "unit": "CFU"}, {"measurement": "survival of bacteria (CFU)", "setting": "[1]; biocide 2.5 ppm as Cl2, contact time 30 min", "result": "8.28E+05", "unit": "CFU"}, {"measurement": "survival of bacteria (CFU)", "setting": "[1]; biocide 2.5 ppm as Cl2, contact time 60 min", "result": "9.38E+04", "unit": "CFU"}, {"measurement": "survival of bacteria (CFU)", "setting": "[1]; biocide 5 ppm as Cl2, contact time 0 min", "result": "1.20E+07", "unit": "CFU"}, {"measurement": "survival of bacteria (CFU)", "setting": "[1]; biocide 5 ppm as Cl2, contact time 5 min", "result": "4.55E+06", "unit": "CFU"}, {"measurement": "survival of bacteria (CFU)", "setting": "[1]; biocide 5 ppm as Cl2, contact time 15 min", "result": "7.03E+05", "unit": "CFU"}, {"measurement": "survival of bacteria (CFU)", "setting": "[1]; biocide 5 ppm as Cl2, contact time 30 min", "result": "2.70E+03", "unit": "CFU"}, {"measurement": "survival of bacteria (CFU)", "setting": "[1]; biocide 5 ppm as Cl2, contact time 60 min", "result": 1.00, "unit": "CFU"}, {"measurement": "% kill", "setting": "[2]; biocide 5 ppm, TOC 0 ppm", "result": 96.9, "unit": "%"}, {"measurement": "% kill", "setting": "[2]; biocide 5 ppm, TOC 10 ppm", "result": 86.0, "unit": "%"}, {"measurement": "% kill", "setting": "[2]; biocide 5 ppm, TOC 30 ppm", "result": 30.6, "unit": "%"}, {"measurement": "% kill", "setting": "[2]; biocide 5 ppm, TOC 50 ppm", "result": 30.6, "unit": "%"}, {"measurement": "% kill", "setting": "[2]; biocide 10 ppm, TOC 0 ppm", "result": 99.9, "unit": "%"}, {"measurement": "% kill", "setting": "[2]; biocide 10 ppm, TOC 10 ppm", "result": 98.8, "unit": "%"}, {"measurement": "% kill", "setting": "[2]; biocide 10 ppm, TOC 30 ppm", "result": 95.4, "unit": "%"}, {"measurement": "% kill", "setting": "[2]; biocide 10 ppm, TOC 50 ppm", "result": 88.3, "unit": "%"}]}
